This note sets out measurements from patent US20240287154A1, “MC3R AGONIST PEPTIDES” (The Regents of the University of Michigan, priority 2021, published 2024).

Non-standard residues stand in square brackets, D forms with d. Residues, ends and D or L forms follow the SMILES beside them. Phe(4-Cl) = N[C@@H](Cc1ccc(Cl)cc1)C(=O)O; dNle = CCCC[C@@H](N)C(=O)O; Nle = CCCC[C@H](N)C(=O)O; dAbu = CC[C@@H](N)C(=O)O

human MC4R, sequence (P32245 whole entry): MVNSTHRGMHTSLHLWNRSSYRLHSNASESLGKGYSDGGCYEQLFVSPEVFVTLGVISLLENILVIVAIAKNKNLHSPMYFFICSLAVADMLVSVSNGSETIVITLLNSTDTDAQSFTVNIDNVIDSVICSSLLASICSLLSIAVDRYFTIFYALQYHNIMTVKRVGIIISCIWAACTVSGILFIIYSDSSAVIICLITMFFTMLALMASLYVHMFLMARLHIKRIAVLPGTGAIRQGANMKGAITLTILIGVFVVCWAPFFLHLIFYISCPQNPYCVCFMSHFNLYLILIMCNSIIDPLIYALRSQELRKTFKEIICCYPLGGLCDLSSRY

For this test, the target named is human MC4R (Homo sapiens, UniProt P32245). The test can be described thus: Intracellular cAMP levels in live cells, MC3R selectivity relative to MC4R. The settings on record: cAMP assays in human MC3R and human MC4R stable cell lines. Type of test: cell-based. The procedure:
The stable cell lines were grown and maintained in selection media consisting of Dulbecco's modified Eagle media (DMEM) with 4.5 g/l D-glucose, and 4 mM L-glutamine (Thermo Fisher Scientific, Waltham, MA), supplemented with 10% fetal bovine serum, 100 units/ml penicillin, 100 μg/ml streptomycin, 2.5 μg/ml amphotericin B, 200 μg/ml hygromycin B (for positive selection of the GScAMP22f luciferase reporter), and Geneticin™ (G418) 700 μg/ml (for MC3R or MC4R selection). Actual serum concentration during the assay is estimated to be about 1%. Cell line identity is routinely verified by qPCR and MC3R- and MC4R-specific oligonucleotides.
The assay for the determination of the CAMP response in live cells was described previously. […] Ccells were seeded at a density of 20,000 cells per well using 384-well poly-D lysine-coated, clear bottom, and black-wall assay plates (Corning Inc. Corning, NJ). Cells were allowed to attach to the plates for 18 to 24 h after which growth media was removed and 20 ul of 4% D-luciferin (Promega) in CO2 independent, serum-free medium (Thermo Fisher Scientific) was added to each well. […] Intracellular cAMP levels were measured using an FDSS 7000EX Functional Drug Screening System (Hamamatsu Photonics, Hamamatsu, Japan) in the Center for Chemical Genomics at the Life Sciences Institute. This instrument allowed the in-line addition of test-peptides and receptor agonists while simultaneously acquiring the luminescence signal from live cells. […] A submaximal forskolin (20 μM) concentration was also included to serve as a normalization reference to account for cell number variations and differences in assay transducer efficiency between cell lines.
With this set up it was possible to evaluate the direct agonist effect of the test-peptides on the MC3R and MC4R cell lines during measurement window 1, while the antagonist profile in the presence of EC90 α-MSH was determined on measurement window 2. […] EC50 or IC50 potency values were determined by non-linear regression by fitting the data to a sigmoid four-parameter variable slope model using the GraphPad Prism version 8.4 software package (San Diego CA).
For orientation: cAMP levels reflect the balance of adenylyl cyclase and phosphodiesterase activity.
On to `CCCC[C@H](NC(=O)[C@@H](NC(=O)[C@@H](N)Cc1ccc(O)cc1)C(C)C)C(=O)N[C@@H](C)C(=O)N[C@@H](Cc1c[nH]cn1)C(=O)N[C@@H](Cc1ccccc1)C(=O)N[C@@H](CCCNC(=N)N)C(=O)N[C@H](Cc1c[nH]c2ccccc12)C(=O)N[C@@H](CC(=O)O)C(=O)N[C@@H](CCCNC(=N)N)C(=O)N[C@@H](Cc1ccccc1)C(=O)NCC(=O)O` [CTX-1133, Tyr-Val-Nle-Ala-His-Phe-Arg-D-Trp-Asp-Arg-Phe-Gly] (H-YV[Nle]AHFR[dW]DRFG-OH), for which the “MC3R selectivity (relative to MC4R)” value was determined as 7.4.

Consider `CCCC[C@H](NC(=O)[C@@H](NC(=O)[C@H](N)Cc1ccc(O)cc1)C(C)C)C(=O)N[C@H](C)C(=O)N[C@@H](Cc1c[nH]cn1)C(=O)N[C@@H](Cc1ccccc1)C(=O)N[C@@H](CCCNC(=N)N)C(=O)N[C@H](Cc1c[nH]c2ccccc12)C(=O)N[C@@H](CC(=O)O)C(N)=O` [CTX-1142, D-Tyr-Val-Nle-D-Ala-His-Phe-Arg-D-Trp-Asp] (H-[dY]V[Nle][dA]HFR[dW]D-NH2), for which the “MC3R selectivity (relative to MC4R)” value came out at 54. The figure for `CCCC[C@H](NC(C)=O)C(=O)NCC(=O)N[C@@H](Cc1c[nH]cn1)C(=O)N[C@@H](Cc1ccccc1)C(=O)N[C@@H](CCCNC(=N)N)C(=O)N[C@H](Cc1c[nH]c2ccccc12)C(=O)N[C@@H](CC(=O)O)C(=O)N[C@@H](CCCNC(=N)N)C(=O)N[C@@H](Cc1ccccc1)C(=O)NCC(=O)O` [CTX-1185, Nle-Gly-His-Phe-Arg-D-Trp-Asp-Arg-Phe-Gly] (Ac-[Nle]GHFR[dW]DRFG-OH) is 2,312; for `CCCC[C@H](NC(=O)[C@@H](NC(=O)[C@@H](N)Cc1ccc(O)cc1)C(C)C)C(=O)N[C@H](CC)C(=O)N[C@@H](Cc1c[nH]cn1)C(=O)N[C@@H](Cc1ccccc1)C(=O)N[C@@H](CCCNC(=N)N)C(=O)N[C@H](Cc1c[nH]c2ccccc12)C(=O)N[C@@H](CC(=O)O)C(=O)N[C@@H](CCCNC(=N)N)C(=O)N[C@@H](Cc1ccccc1)C(=O)NCC(=O)O` [CTX-1135, Tyr-Val-Nle-D-Abu-His-Phe-Arg-D-Trp-Asp-Arg-Phe-Gly] (H-YV[Nle][dAbu]HFR[dW]DRFG-OH) it is 667; for `CCCC[C@H](NC(C)=O)C(=O)N[C@H](C)C(=O)N[C@@H](Cc1c[nH]cn1)C(=O)N[C@@H](Cc1ccccc1)C(=O)N[C@@H](CCCNC(=N)N)C(=O)N[C@H](Cc1c[nH]c2ccccc12)C(=O)N[C@@H](CC(=O)O)C(N)=O` [CTX-1123, Nle-D-Ala-His-Phe-Arg-D-Trp-Asp] (Ac-[Nle][dA]HFR[dW]D-NH2) it is 28.

Consider `CCCC[C@H](NC(=O)[C@@H](NC(=O)[C@@H](N)Cc1ccc(O)cc1)C(C)C)C(=O)NCC(=O)N[C@@H](CCCNC(=N)N)C(=O)N[C@@H](Cc1ccccc1)C(=O)N[C@@H](CCCNC(=N)N)C(=O)N[C@H](Cc1c[nH]c2ccccc12)C(=O)N[C@@H](CC(=O)O)C(=O)N[C@@H](CCCNC(=N)N)C(=O)N[C@@H](Cc1ccccc1)C(=O)NCC(=O)O` [CTX-1549, Tyr-Val-Nle-Gly-Arg-Phe-Arg-D-Trp-Asp-Arg-Phe-Gly] (H-YV[Nle]GRFR[dW]DRFG-OH), for which the “MC3R selectivity (relative to MC4R)” value was found to be 102.

As for `CCCC[C@H](NC(C)=O)C(=O)N[C@H](C)C(=O)N[C@@H](Cc1c[nH]cn1)C(=O)N[C@@H](Cc1ccc(Cl)cc1)C(=O)N[C@@H](CCCNC(=N)N)C(=O)N[C@H](Cc1c[nH]c2ccccc12)C(=O)N[C@@H](CC(=O)O)C(=O)N[C@@H](CCCNC(=N)N)C(=O)N[C@@H](Cc1ccccc1)C(=O)NCC(=O)O` [CTX-1166, Nle-D-Ala-His-Phe(4-Cl)-Arg-D-Trp-Asp-Arg-Phe-Gly] (Ac-[Nle][dA]H[Phe(4-Cl)]R[dW]DRFG-OH), the “MC3R selectivity (relative to MC4R)” value is 3099. Regarding `CCCC[C@H](NC(C)=O)C(=O)N[C@H](C)C(=O)N[C@@H](Cc1c[nH]cn1)C(=O)N[C@@H](Cc1ccccc1)C(=O)N[C@@H](CCCNC(=N)N)C(=O)N[C@H](Cc1c[nH]c2ccccc12)C(=O)N[C@@H](CC(=O)O)C(=O)N[C@@H](CCCNC(=N)N)C(=O)N[C@@H](Cc1ccccc1)C(N)=O` [CTX-1158, Nle-D-Ala-His-Phe-Arg-D-Trp-Asp-Arg-Phe] (Ac-[Nle][dA]HFR[dW]DRF-NH2), the “MC3R selectivity (relative to MC4R)” value stood at 535. The figure for `CSCC[C@H](NC(=O)[C@@H](NC(=O)[C@@H](N)Cc1ccc(O)cc1)C(C)C)C(=O)NCC(=O)N[C@@H](CCCNC(=N)N)C(=O)N[C@@H](Cc1ccccc1)C(=O)N[C@@H](CCCNC(=N)N)C(=O)N[C@H](Cc1c[nH]c2ccccc12)C(=O)N[C@@H](CC(=O)O)C(=O)N[C@@H](CCCNC(=N)N)C(=O)N[C@@H](Cc1ccccc1)C(=O)NCC(=O)O` [CTX-1548, Tyr-Val-Met-Gly-Arg-Phe-Arg-D-Trp-Asp-Arg-Phe-Gly] (H-YVMGRFR[dW]DRFG-OH) is 267; for `CCCC[C@H](NC(C)=O)C(=O)N[C@H](CCCC)C(=O)N[C@@H](Cc1c[nH]cn1)C(=O)N[C@@H](Cc1ccccc1)C(=O)N[C@@H](CCCNC(=N)N)C(=O)N[C@H](Cc1c[nH]c2ccccc12)C(=O)N[C@@H](CC(=O)O)C(=O)N[C@@H](CCCNC(=N)N)C(=O)N[C@@H](Cc1ccccc1)C(=O)NCC(=O)O` [CTX-1182, Nle-D-Nle-His-Phe-Arg-D-Trp-Asp-Arg-Phe-Gly] (Ac-[Nle][dNle]HFR[dW]DRFG-OH) it is 1406. Take `CCCC[C@H](NC(C)=O)C(=O)N[C@@H](C(=O)N[C@@H](Cc1c[nH]cn1)C(=O)N[C@@H](Cc1ccccc1)C(=O)N[C@@H](CCCNC(=N)N)C(=O)N[C@H](Cc1c[nH]c2ccccc12)C(=O)N[C@@H](CC(=O)O)C(=O)N[C@@H](CCCNC(=N)N)C(=O)N[C@@H](Cc1ccccc1)C(=O)NCC(=O)O)C(C)C` [CTX-1181, Nle-D-Val-His-Phe-Arg-D-Trp-Asp-Arg-Phe-Gly] (Ac-[Nle][dV]HFR[dW]DRFG-OH): the “MC3R selectivity (relative to MC4R)” value was 718. The figure for `CCCC[C@H](NC(=O)[C@@H](NC(=O)[C@@H](Cc1ccc(O)cc1)NC(=O)CNC(=O)COCCOCCNC(=O)CNC(=O)CCc1ccc(I)cc1)C(C)C)C(=O)N[C@H](C)C(=O)N[C@@H](Cc1c[nH]cn1)C(=O)N[C@@H](Cc1ccccc1)C(=O)N[C@@H](CCCNC(=N)N)C(=O)N[C@H](Cc1c[nH]c2ccccc12)C(=O)N[C@@H](CC(=O)O)C(=O)N[C@H](CCCNC(=N)N)C(=O)N[C@@H](Cc1ccccc1)C(=O)NCC(=O)O` [CTX-1156, Gly-D-Tyr-Val Nle-D-Ala-His-Phe-Arg-D-Trp-Asp-D-Arg-Phe-Gly] is 86; for `CC(=O)N[C@H](C(=O)NCC(=O)N[C@@H](Cc1c[nH]cn1)C(=O)N[C@@H](Cc1ccccc1)C(=O)N[C@@H](CCCNC(=N)N)C(=O)N[C@H](Cc1c[nH]c2ccccc12)C(=O)N[C@@H](CC(=O)O)C(N)=O)[C@@H](C)O` [CTX-1112, Thr-Gly-His-Phe-Arg-D-Trp-Asp] (Ac-TGHFR[dW]D-NH2) it is 8.6. The figure for `CCCC[C@H](NC(=O)[C@@H](NC(=O)CNC(=O)COCCOCCNC(=O)CNC(=O)CCc1ccc(I)cc1)C(C)C)C(=O)N[C@H](C)C(=O)N[C@@H](Cc1c[nH]cn1)C(=O)N[C@@H](Cc1ccccc1)C(=O)N[C@@H](CCCNC(=N)N)C(=O)N[C@H](Cc1c[nH]c2ccccc12)C(=O)N[C@@H](CC(=O)O)C(=O)N[C@@H](CCCNC(=N)N)C(=O)N[C@@H](Cc1ccccc1)C(=O)NCC(=O)O` [CTX-1150, Gly-Val-Nle-D-Ala-His-Phe-Arg-D-Trp-Asp-Arg-Phe-Gly] is 577; for `CCCC[C@H](NC(C)=O)C(=O)N[C@H](C)C(=O)N[C@@H](Cc1c[nH]cn1)C(=O)N[C@@H](Cc1ccccc1)C(=O)N[C@@H](CCCNC(=N)N)C(=O)N[C@H](Cc1c[nH]c2ccccc12)C(N)=O` [CTX-1539, Nle-D-Ala-His-Phe-Arg-D-Trp] (Ac-[Nle][dA]HFR[dW]-NH2) it is 16. As to `CCCC[C@H](NC(C)=O)C(=O)N[C@H](C)C(=O)N[C@@H](Cc1c[nH]cn1)C(=O)N[C@@H](Cc1ccccc1)C(=O)N[C@@H](CCCNC(=N)N)C(=O)N[C@H](Cc1c[nH]c2ccccc12)C(=O)N[C@@H](CC(=O)O)C(=O)N[C@@H](CCCNC(=N)N)C(=O)N1CCC[C@H]1C(=O)NCC(=O)O` [CTX-1536, Nle-D-Ala-His-Phe-Arg-D-Trp-Asp-Arg-Pro-Gly] (Ac-[Nle][dA]HFR[dW]DRPG-OH), the “MC3R selectivity (relative to MC4R)” value is on record as 72.

`CCCC[C@H](NC(C)=O)C(=O)N1CCC[C@@H]1C(=O)N[C@@H](Cc1c[nH]cn1)C(=O)N[C@@H](Cc1ccccc1)C(=O)N[C@@H](CCCNC(=N)N)C(=O)N[C@H](Cc1c[nH]c2ccccc12)C(=O)N[C@@H](CC(=O)O)C(=O)N[C@@H](CCCNC(=N)N)C(=O)N[C@@H](Cc1ccccc1)C(=O)NCC(=O)O` [CTX-1184, Nle-D-Pro-His-Phe-Arg-D-Trp-Asp-Arg-Phe-Gly] (Ac-[Nle][dP]HFR[dW]DRFG-OH): the “MC3R selectivity (relative to MC4R)” value is on record as 28.
